Test results as given in patent publication US20230365563A1, “QUINAZOLINE COMPOUND AND APPLICATION THEREOF” (SHANGHAI PHARMACEUTICALS HOLDING CO., LTD., priority 2020, published 2023).
Counter-ions that a name gives are not always drawn.

Experiments:
[1] = target: T1, KRAS-G12D and SOS1 (Homo sapiens, UniProt P01116, G12D); assay: Inhibition of KRAS-G12D/SOS1 binding (Cisbio binding kit, 665/615 ratio), Effect Embodiment A; conditions: read-out: GTP-KRAS-G12D:SOS1 IC50
T1 construct: purchased
Method in brief: (§1)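 Test compounds were serially diluted 3-fold from the storage solution over 11 points and dispensed in duplicate wells at 1% final DMSO.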

[2] = target: T2, KRAS_G12D and cRAF (Homo sapiens, UniProt P01116, G12D); assay: Inhibition of KRAS_G12D/cRAF binding (Cisbio binding kit, 665/615 ratio), Effect Embodiment B; conditions: read-out: GTP-KRAS-G12D:CRAF IC50
T2 construct: purchased
T2 sequence (P01116 1-188 isoform P01116-2 G12D): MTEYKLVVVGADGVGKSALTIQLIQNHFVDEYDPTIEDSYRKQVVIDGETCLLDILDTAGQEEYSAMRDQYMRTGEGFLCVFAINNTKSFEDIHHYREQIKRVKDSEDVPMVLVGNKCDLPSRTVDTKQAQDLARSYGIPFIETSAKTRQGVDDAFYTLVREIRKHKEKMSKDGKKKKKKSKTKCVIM
Method in brief: as §1

[3] = target: T3, KRAS_WT and SOS1 (Homo sapiens, UniProt P01116); assay: Inhibition of KRAS_WT/SOS1 binding (Cisbio binding kit, 665/615 ratio), Effect Embodiment C; conditions: read-out: GTP-KRAS-WT:SOS1 IC50
T3 construct: purchased
T3 sequence (P01116 1-188 isoform P01116-2): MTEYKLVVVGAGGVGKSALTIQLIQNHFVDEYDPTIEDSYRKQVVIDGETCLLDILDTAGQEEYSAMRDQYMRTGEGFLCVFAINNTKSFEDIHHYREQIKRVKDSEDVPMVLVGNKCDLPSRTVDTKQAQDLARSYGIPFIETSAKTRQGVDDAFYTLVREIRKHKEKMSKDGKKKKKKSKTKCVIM
Method in brief: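 Compounds tested as 3-fold, 11-point dilutions in duplicate at 1% DMSO final against the KRAS_WT/SOS1 binding system. IC50 derived by nonlinear regression fit.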

T1 sequence (P01116 1-188 isoform P01116-2 G12D): as the sequence (P01116 1-188 isoform P01116-2 G12D) above

Row | SMILES | IC50 [1] [µM] | IC50 [2] [µM] | IC50 [3] [µM]
1 | CNCCCOc1nc(N2CC3CCC(C2)N3)c2cc(Cl)c(-c3cc(O)cc4ccccc34)c(F)c2n1 (single isomer, unassigned) [Compound 93, 4-((S or R)-4-((1R,5S)-3,8-diazabicyclo[3.2.1]octan-3-yl)-6-chloro-8-fluoro-2-(3-(methylamino)propoxy)quinazolin-7-yl)naphthalen-2-ol dihydrochloride] | 0.0123 | 0.0821 | 2.03
2 | NCCCOc1nc(N2CC3CCC(C2)N3)c2cc(Cl)c(-c3cc(O)cc4ccccc34)c(F)c2n1 (single isomer, unassigned) [Compound 94, 4-((S or R)-2-(3-aminopropoxy)-4-((1R,5S)-3,8-diazabicyclo[3.2.1]octan-3-yl)-6-chloro-8-fluoroquinazolin-7-yl)naphthalen-2-ol dihydrochloride] | 0.0532 | 0.164 | 5.22
3 | NCCCCOc1nc(N2CC3CCC(C2)N3)c2cc(Cl)c(-c3cc(O)cc4ccccc34)c(F)c2n1 (single isomer, unassigned) [Compound 95, 4-((S or R)-2-(4-aminobutoxy)-4-((1R,5S)-3,8-diazabicyclo[3.2.1]octan-3-yl)-6-chloro-8-fluoroquinazolin-7-yl)naphthalen-2-ol dihydrochloride] | 0.0482 | 0.284 | 6.67
4 | CN1CCCC1CCOc1nc(N2CC3CCC(C2)N3)c2cc(Cl)c(-c3cc(O)cc4ccccc34)c(F)c2n1 (single isomer, unassigned) [Compound 96a, 4-((S or R)-4-((1R,5S)-3,8-diazabicyclo[3.2.1]octan-3-yl)-6-chloro-8-fluoro-2-(2-((S or R)-1-methylpyrrolidin-2-yl)ethoxy)quinazolin-7-yl)naphthalen-2-ol] | 0.022 | 0.0885 | 1.54
5 | CN1CCCC1CCOc1nc(N2CC3CCC(C2)N3)c2cc(Cl)c(-c3cc(O)cc4ccccc34)c(F)c2n1 (single isomer, unassigned) [Compound 96b, 4-((S or R)-4-((1R,5S)-3,8-diazabicyclo[3.2.1]octan-3-yl)-6-chloro-8-fluoro-2-(2-((R or S)-1-methylpyrrolidin-2-yl)ethoxy)quinazolin-7-yl)naphthalen-2-ol] | 0.0343 | 0.156 | 2.97
6 | Oc1cc(-c2c(Cl)cc3c(N4CC5CCC(C4)N5)nc(OCC4(CN5CCCC5)CC4)nc3c2F)c2ccccc2c1 (single isomer, unassigned) [Compound 97, 4-((S or R)-4-((1R,5S)-3,8-diazabicyclo[3.2.1]octan-3-yl)-6-chloro-8-fluoro-2-((1-(pyrrolidin-1-ylmethyl)cyclopropyl)methoxy)quinazolin-7-yl)naphthalen-2-ol] | 0.0189 | 0.0156 | 0.291
7 | CN(C)CCCCCOc1nc(N2CC3CCC(C2)N3)c2cc(Cl)c(-c3cc(O)cc4ccccc34)c(F)c2n1 (single isomer, unassigned) [Compound 98, 4-((S or R)-4-((1R,5S)-3,8-diazabicyclo[3.2.1]octan-3-yl)-6-chloro-2-((5-(dimethylamino)pentyl)oxy)-8-fluoroquinazolin-7-yl)naphthalen-2-ol carboxylate] | 0.0953 | 0.477 | 7.7
8 | CN1CCN(CCCOc2nc(N3CC4CCC(C3)N4)c3cc(Cl)c(-c4cc(O)cc5ccccc45)c(F)c3n2)CC1 (single isomer, unassigned) [Compound 99, 4-((S or R)-4-((1R,5S)-3,8-diazabicyclo[3.2.1]octan-3-yl)-6-chloro-8-fluoro-2-(3-(4-methylpiperazin-1-yl)propoxy)quinazolin-7-yl)naphthalen-2-ol dihydrochloride] | 0.0522 | 0.168 | 2.6
9 | CN1CC[C@H]1COc1nc(N2CC3CCC(C2)N3)c2cc(Cl)c(-c3cc(O)cc4ccccc34)c(F)c2n1 (single isomer, unassigned) [Compound 100, 4-((S or R)-4-((1R,5S)-3,8-diazabicyclo[3.2.1]octan-3-yl)-6-chloro-8-fluoro-2-(S)-1-methylazetidin-2-yl)methoxy)quinazolin-7-yl)naphthalen-2-ol bitrifluoroacetate] | 0.0191 | 0.0537 | 0.504
10 | CC(C)NCCCOc1nc(N2CC3CCC(C2)N3)c2cc(Cl)c(-c3cc(O)cc4ccccc34)c(F)c2n1 (single isomer, unassigned) [Compound 101, 4-((S or R)-4-((1R,5S)-3,8-diazabicyclo[3.2.1]octan-3-yl)-6-chloro-8-fluoro-2-(3-(isopropylamino)propoxy)quinazolin-7-yl)naphthalen-2-ol dihydrochloride] | 0.0317 | 0.182 | 2.47
11 | CC(C)(COc1nc(N2CC3CCC(C2)N3)c2cc(Cl)c(-c3cc(O)cc4ccccc34)c(F)c2n1)CN1CCCC1 (single isomer, unassigned) [Compound 102, 4-((S or R)-4-((1R,5S)-3,8-diazabicyclo[3.2.1]octan-3-yl)-6-chloro-2-(2,2-dimethyl-3-(pyrrolidin-1-yl)propoxy)-8-fluoroquinazolin-7-yl)naphthalen-2-ol dihydrochloride] | 0.0198 | 0.039 | 1.1
12 | CN(CCCCN1CCNCC1)CCCOc1nc(N2C[C@H]3CC[C@@H](C2)N3)c2cc(Cl)c(-c3cc(O)cc4ccccc34)c(F)c2n1 (single isomer, unassigned) [Compound 103, (S or R)-4-(4-((1R,5S)-3,8-diazabicyclo[3.2.1]octan-3-yl)-6-chloro-8-fluoro-2-(3-(methyl(4-(piperazin-1-yl)butyl)amino)propoxy)quinazolin-7-yl)naphthalen-2-ol tetrahydrochloride] | 0.0194 | 0.12 | 1.26
13 | CN(C)C(C)(C)COc1nc(N2CC3CCC(C2)N3)c2cc(Cl)c(-c3cc(O)cc4ccccc34)c(F)c2n1 (single isomer, unassigned) [Compound 104, 4-((S or R)-4-((1R,5S)-3,8-diazabicyclo[3.2.1]octan-3-yl)-6-chloro-2-(2-(dimethylamino)-2-methylpropoxy)-8-fluoroquinazolin-7-yl)naphthalen-2-ol dihydrochloride] | 0.0409 | 0.248 | > 10
14 | CCNCCCOc1nc(N2CC3CCC(C2)N3)c2cc(Cl)c(-c3cc(O)cc4ccccc34)c(F)c2n1 (single isomer, unassigned) [Compound 105, dihydrochloride] | 0.0224 | 0.185 | 3.04
15 | Oc1cc(-c2c(Cl)cc3c(N4CC5CCC(C4)N5)nc(OCCCN4C5CCC4COC5)nc3c2F)c2ccccc2c1 (single isomer, unassigned) [Compound 106, (4S or R)-4-(2-(3-(3-oxa-8-azabicyclo[3.2.1]octan-8-yl)propoxy)-4-((1R,5S)-3,8-diazabicyclo[3.2.1]octan-3-yl)-6-chloro-8-fluoroquinazolin-7-yl)naphthalen-2-ol dihydrochloride] | 0.0391 | 0.158 | 1.77
